Results taken from patent publication US8247211B2, “Glycopeptide antibiotics” (American Cyanamid Company, priority 2001, dated 2012).
≈ marks a conversion by molar mass, not a printed value.

Legend:
[1] = test system: Streptococcus sp.; experiment: In vitro antibacterial evaluation: minimum inhibitory concentration (MIC), broth dilution method; assay type: cell-based; settings: 18 hours at 35° C.
In short: (§1)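 Test strains, among them recent clinical isolates carrying methicillin, penicillin and/or vancomycin resistance, were inoculated at 5×10^5 CFU/mL. A broth dilution series spanning 64-0.06 μg/mL in Muller-Hinton II […] (NCCLS M7-A2) defined the MIC as the lowest growth-inhibiting concentration.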

[2] = test system: Enterococcus sp.; experiment: as above; assay type: cell-based; settings: 18 hours at 35° C.
In short: as §1

[3] = test system: Staphylococcus sp.; experiment: as above; assay type: cell-based; settings: 18 hours at 35° C.
In short: as §1

[4] = test system: Escherichia coli; experiment: as above; assay type: cell-based; settings: Escherichia coli (GC 4560); 18 hours at 35° C.
In short: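 Values are minimum inhibitory concentrations, meaning the smallest antibiotic concentration that stops growth of the organism. They come from broth dilution in Muller-Hinton II […] per NCCLS guidance (M7-A2), using 5×10^5 CFU/mL and concentrations from 64 to 0.06 μg/mL.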

[5] = test system: Staphylococcus aureus-SMITH (GC 4543); experiment: Acute lethal infection in mice (ED50); assay type: in vivo; settings: female CD-1 mice, intraperitoneal challenge, intravenous dose 30 min. after infection, 7 day survival ratios
In short: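 IP bacterial challenge, female CD-1 mice; inoculum lethal to untreated controls in 24-48 hr. IV dosing in saline or 5% dextrose 30 min post-infection, 5 mice/dose. ED50 from 7-day survival, 3 tests pooled.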

[6] = broth dilution, inoculum 5×10^5 CFU/mL

CC(c1ccccc1)C1NC(=O)CNC(=O)C(CO)NC(=O)C(C(O)C2CNC(=N)N2C2OC(CO)C(O)C(O)C2O)NC(=O)C(C(O)C2CNC(=N)N2)NC(=O)C(Cc2ccc(OC3OC(CO)C(OC4OC(COCc5ccc(OCc6ccccc6)cc5)C(O)C(O)C4O)C(O)C3O)cc2)NC1=O (stereo not drawn) [Example 231, Cyclo[glycyl-β-methylphenylalanyl-O-[4-O-[6-O-[4-(phenylmethoxy)benzyl]hexopyranosyl]-hexopyranosyl)tyrosyl-3-(2-iminoimidazolidin-4-yl)seryl-3-(3-hexopyranosyl-2-iminoimidazolidin-4-yl)serylseryl]]
MIC Streptococcus agalactiae (GC 4564) ([1]; Streptococcus agalactiae (GC 4564)): <0.06 µg/mL | MIC Streptococcus pneumoniae (ATCC 6301) ([1]; Streptococcus pneumoniae (ATCC 6301)): <0.06 µg/mL | MIC Streptococcus pneumoniae (GC 1894) ([1]; Streptococcus pneumoniae (GC 1894)): <0.06 µg/mL | MIC Streptococcus pneumoniae (GC 4565) ([1]; Streptococcus pneumoniae (GC 4565)): <0.06 µg/mL | MIC Streptococcus pyogenes (GC 4563) ([1]; Streptococcus pyogenes (GC 4563)): <0.06 µg/mL | MIC Streptococcus agalactiae (GC 4564) [1, 6]: <0.06 µg/mL | MIC Streptococcus pneumoniae (ATCC 6301) [1, 6]: <0.06 µg/mL | MIC Streptococcus pneumoniae (GC 1894) [1, 6]: <0.06 µg/mL | MIC Streptococcus pneumoniae (GC 4565) [1, 6]: <0.06 µg/mL | MIC Streptococcus pyogenes (GC 4563) [1, 6]: <0.06 µg/mL | MIC Enterococcus avium (GC 4558) ([2]; Enterococcus avium (GC 4558)): 2 to 4 µg/mL | MIC Enterococcus faecalis (ATCC 29212) ([2]; Enterococcus faecalis (ATCC 29212)): 4 µg/mL (≈ 2.68 µM) | MIC Enterococcus faecalis (GC 2242) ([2]; Enterococcus faecalis (GC 2242)): 4 µg/mL (≈ 2.68 µM) | MIC Enterococcus faecalis (GC 2691) ([2]; Enterococcus faecalis (GC 2691)): 2 to 4 µg/mL | MIC Enterococcus faecalis (GC 3059) ([2]; Enterococcus faecalis (GC 3059)): 2 to 4 µg/mL | MIC Enterococcus faecalis (GC 4552) ([2]; Enterococcus faecalis (GC 4552)): 4 µg/mL (≈ 2.68 µM) | MIC Enterococcus faecalis (GC 4553) ([2]; Enterococcus faecalis (GC 4553)): 4 µg/mL (≈ 2.68 µM) | MIC Enterococcus faecalis (GC 4554) ([2]; Enterococcus faecalis (GC 4554)): 4 µg/mL (≈ 2.68 µM) | MIC Enterococcus faecalis (GC 6189) ([2]; Enterococcus faecalis (GC 6189)): 2 to 4 µg/mL | MIC Enterococcus faecium (GC 2243) ([2]; Enterococcus faecium (GC 2243)): 4 µg/mL (≈ 2.68 µM) | MIC Enterococcus faecium (GC 4556) ([2]; Enterococcus faecium (GC 4556)): 4 µg/mL (≈ 2.68 µM) | MIC Enterococcus faecium (GC 4557) ([2]; Enterococcus faecium (GC 4557)): 1 to 2 µg/mL | MIC Enterococcus avium (GC 4558) [2, 6]: 2 to 4 µg/mL | MIC Enterococcus faecalis (ATCC 29212) [2, 6]: 4 µg/mL (≈ 2.68 µM) | MIC Enterococcus faecalis (GC 2242) [2, 6]: 4 µg/mL (≈ 2.68 µM) | MIC Enterococcus faecalis (GC 2691) [2, 6]: 2 to 4 µg/mL | MIC Enterococcus faecalis (GC 3059) [2, 6]: 2 to 4 µg/mL | MIC Enterococcus faecalis (GC 4552) [2, 6]: 4 µg/mL (≈ 2.68 µM) | MIC Enterococcus faecalis (GC 4553) [2, 6]: 4 µg/mL (≈ 2.68 µM) | MIC Enterococcus faecalis (GC 4554) [2, 6]: 4 µg/mL (≈ 2.68 µM) | MIC Enterococcus faecalis (GC 6189) [2, 6]: 2 to 4 µg/mL | MIC Enterococcus faecium (GC 2243) [2, 6]: 4 µg/mL (≈ 2.68 µM) | MIC Enterococcus faecium (GC 4556) [2, 6]: 4 µg/mL (≈ 2.68 µM) | MIC Enterococcus faecium (GC 4557) [2, 6]: 1 to 2 µg/mL | MIC Coagulase Negative Staphylococcus (GC 4547) ([3]; Coagulase Negative Staphylococcus (GC 4547)): 1 to 2 µg/mL | MIC Coagulase Negative Staphylococcus (GC 4548) ([3]; Coagulase Negative Staphylococcus (GC 4548)): 0.5 to 1 µg/mL | MIC Coagulase Negative Staphylococcus (GC 4551) ([3]; Coagulase Negative Staphylococcus (GC 4551)): 1 µg/mL (≈ 0.67 µM) | MIC Coagulase Negative Staphylococcus (GC 6257) ([3]; Coagulase Negative Staphylococcus (GC 6257)): 0.5 to 1 µg/mL | MIC Staphylococcus aureus (ATCC 29213) ([3]; Staphylococcus aureus (ATCC 29213)): 1 to 4 µg/mL | MIC Staphylococcus aureus (GC 1131) ([3]; Staphylococcus aureus (GC 1131)): 2 to 4 µg/mL | MIC Staphylococcus aureus (GC 3051) ([3]; Staphylococcus aureus (GC 3051)): 1 to 2 µg/mL | MIC Staphylococcus aureus (GC 3053) ([3]; Staphylococcus aureus (GC 3053)): 1 to 2 µg/mL | MIC Staphylococcus aureus (GC 4541) ([3]; Staphylococcus aureus (GC 4541)): 1 to 4 µg/mL | MIC Staphylococcus aureus (GC 4542) ([3]; Staphylococcus aureus (GC 4542)): 2 to 4 µg/mL | MIC Staphylococcus aureus (GC 4544) ([3]; Staphylococcus aureus (GC 4544)): 2 to 4 µg/mL | MIC Staphylococcus aureus (GC 4545) ([3]; Staphylococcus aureus (GC 4545)): 1 to 4 µg/mL | MIC Staphylococcus aureus-SMITH (GC 4543) ([3]; Staphylococcus aureus-SMITH (GC 4543)): 2 µg/mL (≈ 1.34 µM) | MIC Staphylococcus haemolyticus (GC 4546) ([3]; Staphylococcus haemolyticus (GC 4546)): 1 to 4 µg/mL | MIC Escherichia coli (GC 4560) [4]: 0.5 to 2 µg/mL | median effective dose (ED50), Staphylococcus aureus-SMITH (GC 4543) [5]: 0.25 mg/kg
